The term IC50 denotes the midpoint of a concentration-inhibition curve.

The experiment deals with Secretion of ApoB. Nature of the experiment: Quantification of the secretion of ApoB in HepG2 cells. The experiment is classed as cell-based. The note with it: Homo sapiens, HepG2, 24 h, 24 hours of incubation with test compound, immunoprecipitation of apoB from medium, read-out: pIC50 value (=-log IC50 value), secretion of ApoB (converted). The protocol: HepG2 cells were cultured in 24-well plates in MEM Rega 3 containing 10% fetal calf serum. At 70% confluency, the medium was changed and the test compound or carrier (DMSO, 0.4% final concentration) was added. After 24 hours of incubation, the medium was transferred to Eppendorf tubes and cleared by centrifugation. A sheep antibody directed against either apoB was added to the supernatant and the mixture was kept at 8° C. for 24 hours. Then, rabbit anti-sheep antibody was added and the immune complex was allowed to precipitate for 24 hours at 8° C. The immunoprecipitate was pelleted by centrifugation for 25 minutes at 1320 g and washed twice with a buffer containing 40 mM Mops, 40 mM NaH2PO4, 100 mM NaF, 0.2 mM DTT, 5 mM EDTA, 5 mM EGTA, 1% Triton-X-100, 0.5% sodium deoxycholate (DOC), 0.1% SDS, 0.2 μM leupeptin and 0.2 μM PMSF. Radioactivity in the pellet was quantified by liquid scintillation-counting. The IC50 values are usually converted to pIC50 values (=−log IC50 value) for ease of use.
For the molecule `CCOC(=O)[C@H](c1ccccc1)N1CCN(c2ccc(-n3ccn([C@H](C)c4ccccc4)c3=O)cc2)CC1` (relative stereo) [Compound 267], the IC50 was < 31.6 nM.

As for `CCOC(=O)[C@H](c1ccccc1)N1CCN(c2ccc(-n3ccn([C@H](C)c4ccc(F)cc4)c3=O)cc2)CC1` (relative stereo) [Compound 268], the IC50 is 31.6 to 316 nM.

As to `CCOC(=O)[C@H](c1ccccc1)N1CCN(c2ccc(-n3ccn([C@H](C)c4cccc(C(F)(F)F)c4)c3=O)cc2)CC1` (relative stereo) [Compound 269], the IC50 is 31.6 to 316 nM.

As to `CCOC(=O)[C@H](c1ccccc1)N1CCN(c2ccc(-n3ccn([C@H](C)c4ccc(C(F)(F)F)cc4)c3=O)cc2)CC1` (relative stereo) [Compound 270], the IC50 was 31.6 to 316 nM.

Turning to `CCOC(=O)[C@H](c1ccccc1)N1CCN(c2ccc(-n3ccn([C@@H](C)c4ccccc4F)c3=O)cc2)CC1` (relative stereo) [Compound 272], the IC50 is 316 to 3160 nM.

`CCOC(=O)[C@@H](c1ccccc1)N1CCN(c2ccc(-n3ccn([C@H](C)c4ccc(F)cc4)c3=O)cc2)CC1` (relative stereo) [Compound 273]: the IC50 was 316 to 3160 nM.

Consider `CCOC(=O)[C@@H](c1ccccc1)N1CCN(c2ccc(-n3ccn([C@@H](C)c4cc(C(F)(F)F)cc(C(F)(F)F)c4)c3=O)cc2)CC1` (relative stereo) [Compound 274], for which the IC50 is 316 to 3160 nM.

Regarding `CCOC(=O)[C@@H](c1ccccc1)N1CCN(c2ccc(-n3cnn([C@@H](C)c4ccccc4)c3=O)cc2)CC1` (relative stereo) [Compound 281], the IC50 was 31.6 to 316 nM.

`CCOC(=O)[C@@H](c1ccccc1)N1CCN(c2ccc(-n3cnn([C@H](C)c4ccc(F)cc4)c3=O)cc2)CC1` (relative stereo) [Compound 298]: the IC50 was 316 to 3160 nM.

`CCOC(=O)[C@@H](c1ccccc1)N1CCN(c2ccc(-n3cnn([C@@H](C)c4ccc(F)cc4)c3=O)cc2)CC1` (relative stereo) [Compound 299]: the IC50 was 31.6 to 316 nM.

Take `CCOC(=O)[C@H](c1ccccc1)N1CCN(c2ccc(-n3ccn([C@H](C)c4ccccc4F)c3=O)cc2)CC1` (stereo in doubt) [Compound 271]: the half-maximal inhibitory concentration (IC50) is 31.6 to 316 nM.

As for `CCOC(=O)[C@@H](c1ccccc1)N1CCN(c2ccc(-n3ccn([C@@H](C)c4ccccc4F)c3=O)cc2)CC1` (stereo in doubt) [Compound 275], the IC50 was 316 to 3160 nM.

In the case of `CCOC(=O)[C@@H](c1ccccc1)N1CCN(c2ccc(-n3cnn([C@H](C)c4ccccc4)c3=O)cc2)CC1` (stereo in doubt) [Compound 280], the IC50 is 316 to 3160 nM.

Consider `CCOC(=O)[C@H](c1ccccc1)N1CCN(c2ccc(-n3cnn([C@@H](C)c4ccccc4)c3=O)cc2)CC1` (stereo in doubt) [Compound 304], for which the concentration for half-maximal inhibition (IC50) is 31.6 to 316 nM.

For the molecule `CCOC(=O)[C@H](c1ccccc1)N1CCN(c2ccc(-n3ccn(C(C)c4cccc(F)c4)c3=O)cc2)CC1` (stereo in doubt) [Compound 337], the half-maximal inhibitory concentration (IC50) is 31.6 to 316 nM.

On to `CCOC(=O)[C@H](c1ccccc1)N1CCN(c2ccc(-n3ccn(C(C)c4cccc(F)c4F)c3=O)cc2)CC1` (stereo in doubt) [Compound 338], for which the IC50 is 31.6 to 316 nM.

Take `CCOC(=O)[C@H](c1ccccc1)N1CCN(c2ccc(-n3ccn(C(C)c4ccc(F)cc4F)c3=O)cc2)CC1` (stereo in doubt) [Compound 339]: the IC50 is 31.6 to 316 nM.

On to `CCOC(=O)[C@H](c1ccccc1)N1CCN(c2ccc(-n3ccn(C(C)c4cc(F)ccc4F)c3=O)cc2)CC1` (stereo in doubt) [Compound 340], for which the IC50 was 31.6 to 316 nM.

On to `CCOC(=O)[C@H](c1ccccc1)N1CCN(c2ccc(-n3ccn(C(C)c4ccc(F)c(F)c4)c3=O)cc2)CC1` (stereo in doubt) [Compound 341], for which the IC50 is 31.6 to 316 nM.

`CCOC(=O)[C@H](c1ccccc1)N1CCN(c2ccc(-n3ccn(C(C)c4cc(F)cc(F)c4)c3=O)cc2)CC1` (stereo in doubt) [Compound 342]: the IC50 is 31.6 to 316 nM.

As for `CCCN(CCC)C(=O)C(CCN1CCN(c2ccc(-n3ncn(C(C)C)c3=O)cc2)CC1)c1ccccc1` (stereo not shown) [Compound 3], the IC50 was 31.6 to 316 nM.

In the case of `COCCNC(=O)C(c1ccccc1)N1CCN(c2ccc(-n3cnn(C(C)C)c3=O)cn2)CC1` (stereo not shown) [Compound 4], the IC50 is 316 to 3160 nM.

Turning to `CC(C)n1cnn(-c2ccc(N3CCN(C(C(=O)Nc4ccccc4)c4ccccc4)CC3)cc2)c1=O` (stereo not shown) [Compound 5], the IC50 is 316 to 3160 nM.

Turning to `CC(C)n1ncn(-c2ccc(N3CCN(CC(C(=O)N(C)C)c4ccccc4)CC3)cc2)c1=O` (stereo not shown) [Compound 6], the IC50 is 31.6 to 316 nM.

Consider `CC(C)NC(=O)C(c1ccccc1)N1CCN(c2ccc(-n3cnn(C(C)C)c3=O)cc2)CC1` (stereo not shown) [Compound 7], for which the IC50 is 31.6 to 316 nM.

On to `CC(C)n1ncn(-c2ccc(N3CCN(C(C(=O)Nc4ccccc4)c4ccccc4)CC3)cc2)c1=O` (stereo not shown) [Compound 8], for which the IC50 is 31.6 to 316 nM.

For the molecule `CCCC(C(=O)OCC)N1CCN(c2ccc(-n3cnn(C(C)C)c3=O)cc2)CC1` (stereo not shown) [Compound 9], the IC50 was 316 to 3160 nM.

In the case of `CC(C)n1ncn(-c2ccc(N3CCN(C(C(=O)Nc4ccncc4)c4ccccc4)CC3)cc2)c1=O` (stereo not shown) [Compound 10], the IC50 was 316 to 3160 nM.

For `CC(C)n1ncn(-c2ccc(N3CCN(C(C(=O)Nc4ccc5c(c4)CCC5)c4ccccc4)CC3)cc2)c1=O` (stereo not shown) [Compound 11], the IC50 is < 31.6 nM.

For the molecule `Cc1cccc(NC(=O)C(c2ccccc2)N2CCN(c3ccc(-n4cnn(C(C)C)c4=O)cc3)CC2)n1` (stereo not shown) [Compound 12], the IC50 is 316 to 3160 nM.

Consider `CCOC(=O)C(c1cccs1)N1CCN(c2ccc(-n3cnn(C(C)C)c3=O)cc2)CC1` (stereo not shown) [Compound 13], for which the IC50 was 316 to 3160 nM.

Regarding `CC(C)n1ncn(-c2ccc(N3CCN(C(C(=O)Nc4cccc5cccnc45)c4ccccc4)CC3)cc2)c1=O` (stereo not shown) [Compound 15], the IC50 is 316 to 3160 nM.

Turning to `CC(C)n1ncn(-c2ccc(N3CCN(C(C(=O)Nc4cccnc4)c4ccccc4)CC3)cc2)c1=O` (stereo not shown) [Compound 16], the IC50 is 316 to 3160 nM.

Turning to `CCOC(=O)C(c1ccccc1)N1CCN(c2ccc(-n3cnn(C(C)C)c3=O)cc2)CC1` (stereo not shown) [Compound 17], the IC50 was 316 to 3160 nM.

Consider `CNC(=O)C(c1ccccc1)N1CCN(c2ccc(-n3cnn(C(C)C)c3=O)cn2)CC1` (stereo not shown) [Compound 18], for which the IC50 was 316 to 3160 nM.

As for `CC(C)n1ncn(-c2ccc(C3CCN(C(C(=O)Nc4ccccc4)c4ccccc4)CC3)cc2)c1=O` (stereo not shown) [Compound 19], the IC50 is 31.6 to 316 nM.

For `CC(C)n1ncn(-c2ccc(C3CCN(C(C(=O)NCc4ccccc4)c4ccccc4)CC3)cc2)c1=O` (stereo not shown) [Compound 20], the IC50 was 31.6 to 316 nM.

Turning to `CCC(C)n1ncn(-c2ccc(N3CCN(C(C(=O)NC(C)C)c4ccccc4)CC3)cc2)c1=O` (stereo not shown) [Compound 21], the IC50 is 31.6 to 316 nM.

Regarding `CCC(C)n1ncn(-c2ccc(N3CCN(C(C(=O)NCc4ccccc4)c4ccccc4)CC3)cc2)c1=O` (stereo not shown) [Compound 22], the half-maximal inhibitory concentration (IC50) is 31.6 to 316 nM.

Regarding `CCC(C)n1ncn(-c2ccc(N3CCN(C(C(=O)Nc4ccccc4)c4ccccc4)CC3)cc2)c1=O` (stereo not shown) [Compound 23], the IC50 is 31.6 to 316 nM.

As to `CCC(C)n1ncn(-c2ccc(N3CCN(C(C(=O)N(C)C)c4ccccc4)CC3)cc2)c1=O` (stereo not shown) [Compound 24], the IC50 was 31.6 to 316 nM.

On to `O=C(NCc1ccccc1)C(c1ccccc1)N1CCN(c2ccc(-n3nc(-c4ccccc4)n(-c4ccccc4)c3=O)cc2)CC1` (stereo not shown) [Compound 25], for which the IC50 is 316 to 3160 nM.

Take `CCNC(=O)C(c1ccccc1)N1CCN(c2ccc(-n3nc(-c4ccccc4)n(-c4ccccc4)c3=O)cc2)CC1` (stereo not shown) [Compound 26]: the 50% inhibitory concentration (IC50) is 316 to 3160 nM.

As to `CCNC(=O)C(c1ccccc1)N1CCN(c2ccc(-n3c(-c4ccccc4)nn(-c4ccccc4)c3=O)cc2)CC1` (stereo not shown) [Compound 28], the IC50 was 316 to 3160 nM.

Consider `COC(=O)C(c1ccccc1)N1CCN(c2ccc(-n3nc(-c4ccccc4)n(-c4ccccc4)c3=O)cc2)CC1` (stereo not shown) [Compound 29], for which the IC50 was 316 to 3160 nM.

Regarding `CCCNC(=O)C(c1ccccc1)N1CCN(c2ccc(-n3nc(-c4ccccc4)n(C(C)C)c3=O)cc2)CC1` (stereo not shown) [Compound 30], the IC50 is 316 to 3160 nM.

For the molecule `CCNC(=O)C(c1ccccc1)N1CCN(c2ccc(-n3c(-c4ccccc4)nn(C(C)C)c3=O)cc2)CC1` (stereo not shown) [Compound 31], the IC50 was 316 to 3160 nM.

As for `CCCNC(=O)C(c1ccccc1)N1CCN(c2ccc(-n3c(-c4ccccc4)nn(C(C)C)c3=O)cc2)CC1` (stereo not shown) [Compound 32], the IC50 was 316 to 3160 nM.

On to `CC(C)n1nc(-c2ccccc2)n(-c2ccc(N3CCN(C(C(=O)NCc4ccccc4)c4ccccc4)CC3)cc2)c1=O` (stereo not shown) [Compound 33], for which the IC50 is 316 to 3160 nM.

Regarding `COC(=O)C(c1ccccc1)N1CCN(c2ccc(-n3nc(-c4ccccc4)n(C(C)C)c3=O)cc2)CC1` (stereo not shown) [Compound 34], the IC50 was 316 to 3160 nM.

Take `COC(=O)C(c1ccccc1)N1CCN(c2ccc(-n3c(-c4ccccc4)nn(C(C)C)c3=O)cc2)CC1` (stereo not shown) [Compound 35]: the IC50 is 316 to 3160 nM.

In the case of `COC(=O)C(c1ccccc1)N1CCN(c2ccc(-n3ncn(C(C)C)c3=O)cc2)CC1` (stereo not shown) [Compound 36], the IC50 is 316 to 3160 nM.

As to `CC(C)n1ncn(-c2ccc(N3CCN(C(C(=O)Nc4ccccc4)c4ccccc4)CC3)nc2)c1=O` (stereo not shown) [Compound 37], the IC50 was 316 to 3160 nM.

For `CCCOC(=O)C(c1ccccc1)N1CCN(c2ccc(-n3cnn(C(C)C)c3=O)cc2)CC1` (stereo not shown) [Compound 38], the IC50 is 316 to 3160 nM.

`CCNC(=O)C(c1ccccc1)N1CCN(c2ccc(-n3nc(C)n(C(C)C)c3=O)cc2)CC1` (stereo not shown) [Compound 39]: the IC50 is 316 to 3160 nM.

Values taken from patent US7504400B2, “MTP inhibiting aryl piperydines or piperazines substituted with 5-membered heterocycles” (Janssen Pharmaceutica N.V., priority 2004, dated 2009).
